assay: Polarity: interfacial tension towards water; type: physicochemical; settings: moderately polar lipids, between about 20 and about 30 mN/m
Text: Oils and fats differ from one another in their polarity, which is difficult to define. It has already been proposed to adopt the interfacial tension towards water as a measure of the polarity index of an oil or of an oil phase. The lower the interfacial tension between this oil phase and water, the greater the polarity of the oil phase in question. According to the present invention, the interfacial tension is regarded as one possible measure of the polarity of a given oil component.
The interfacial tension is the force which acts on an imaginary line one meter in length at the interface between two phases. The physical unit for this interfacial tension is conventionally calculated from the force/length relationship and is usually expressed in mN/m (millinewtons divided by meters). It has a positive sign if it tends to reduce the interface. In the converse case, it has a negative sign. For the purposes of the present invention, lipids are regarded as polar if their interfacial tension towards water is less than about 20 mN/m, and as nonpolar if their interfacial tension towards water is more than about 30 mN/m. Lipids with an interfacial tension towards water between about 20 and about 30 mN/m are generally referred to as moderately polar.

| Compound | Polarity (interfacial tension towards water) [mN/m] |
| --- | --- |
| CCCCC(CC)C(=O)OCCC(C)CC(C)(C)C (stereo not shown) [Dermol 98, 2-Ethylhexanoic acid 3,5,5 trimethyl ester] | 26.2 |
| CCCCCCCCCCC(CO)CCCCCCCC (stereo not shown) [Eutanol G, Octyldodecanol] | 24.8 |
| CCCCCCCC(=O)OCCCCCCCC(C)C [Dermol 108, Isodecyl octanoate] | 29.6 |
| CCCCCCC(CCCC)C(=O)O (stereo not shown) [Isocarb 12, Butyl octanoic acid] | 22.1 |
| CC(C)CCCCCCCOC(=O)CC(C)CC(C)(C)C (stereo not shown) [Dermol 109, Isodecyl 3,5,5-trimethyl hexanoate] | 29.1 |
| CC(C)CCCCCCCOC(=O)C(C)(C)C [DUB VCI 10, Isodecyl neopentanoate] | 29.9 |

Now from value to compound:

| Polarity (interfacial tension towards water) [mN/m] | Compound |
| --- | --- |
| 29.7 | CCCCCCCCCC(=O)OCCCC(C)C [Dermol IHD, Isohexyl decanoate] |
| 22.1 | CCCCCCCCCCCCCC(=O)OCC(CCCCCCCC)CCCCCCCCCC (stereo not shown) [M.O.D., Octyldodecyl myristate] |
| 20.2 | CCCCCCCC(=O)OCC(COC(=O)CCCCCCC)OC(=O)CCCCCCC [Trivent OCG, Tricaprylin] |
| 29.2 | CCCCCCOCCCCCC [Dihexyl ether] |
| 21.9 | CCCCCCCCCCCCCCCCCC(=O)OC(C)C [Isopropyl stearate] |
| 24.5 | Isotridecyl 3,5,5 trimethyl hexanona-noate [Dermol 139] |

same assay, conditions: polar lipids, less than about 20 mN/m

| Compound | Polarity (interfacial tension towards water) [mN/m] |
| --- | --- |
| PEG 2 Diethylene hexanoate [Dermol 488] | 10.1 |
| CCCCOC(=O)CCCCC(=O)OCCCC [Cetiol B, Dibutyl adipate] | 14.3 |

Continued, values first:

| Polarity (interfacial tension towards water) [mN/m] | Compound |
| --- | --- |
| 2.4 | Triisostearin [Prisorine 2041 GTIS] |
| 17.8 | CCCCCCCCCCCCCCCCCCOC(=O)CCCCCC [Tegosoft SH, Stearyl heptanoate] |

From patent publication US7875653B2, “Emulsion comprising 1,2-alkanediols and polar oil components” (Beiersdorf AG, priority 2005, dated 2011)
